Where “and” joins values, the source holds several entries; their conditions need not be identical. Identical values can stand only once.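 Grown in 96-well plates, cells were treated for 48 hours with each compound at five concentrations. Insufficient inhibition: endpoint recorded as highest concentration tested. At the GI50, growth is halved. Definition used: TGI = concentration required for complete inhibition of growth.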
Tests used:
Assay in all cases: inhibition of tumour cell growth, NCI panel, 48 h
LOX IMVI melanoma = tested on: LOX IMVI melanoma
MOLT-4 leukemia = tested on: MOLT-4 leukemia
OVCAR-3 ovarian = tested on: OVCAR-3 ovarian
UACC-62 melanoma = tested on: UACC-62 melanoma
CAKI-1 renal = tested on: CAKI-1 renal
RPMI-8226 leukemia = tested on: RPMI-8226 leukemia
SNB-19 CNS = tested on: SNB-19 CNS
MDA-MB-231 breast = tested on: MDA-MB-231 breast
SF-268 CNS = tested on: SF-268 CNS
MCF7 breast = tested on: MCF7 breast

| SMILES | GI50 (LOX IMVI melanoma) [µM] | TGI (LOX IMVI melanoma) [µM] | TGI (MOLT-4 leukemia) [µM] | GI50 (OVCAR-3 ovarian) [µM] | TGI (OVCAR-3 ovarian) | GI50 (UACC-62 melanoma) [µM] | TGI (UACC-62 melanoma) | TGI (CAKI-1 renal) | GI50 (RPMI-8226 leukemia) [µM] | TGI (RPMI-8226 leukemia) | GI50 (SNB-19 CNS) [µM] | GI50 (MDA-MB-231 breast) [µM] | TGI (MDA-MB-231 breast) | GI50 (SF-268 CNS) [µM] | TGI (SF-268 CNS) [µM] | GI50 (MCF7 breast) [µM] | TGI (SNB-19 CNS) [µM] | TGI (MCF7 breast) [µM] | GI50 (MOLT-4 leukemia) [µM] | GI50 (CAKI-1 renal) [µM] |
| --- | --- | --- | --- | --- | --- | --- | --- | --- | --- | --- | --- | --- | --- | --- | --- | --- | --- | --- | --- | --- |
| CN[C@@H](Cc1cccc2ccccc12)C(=O)N[C@@H](CC(C)C)B(O)O | 0.0135 | 0.0324 | 0.0466 | 0.0158 | 0.037 µM and < 0.0147 µM | 0.017 | 0.0344 µM and < 0.0154 µM | 0.0272 µM and < 0.0131 µM | 0.00547 | 0.0439 µM | 0.0356 | 0.0201 | 0.0446 µM and < 0.0145 µM | 0.0154 | 0.0353 | 0.00637 | – | – | – | – |
| O=S(=O)(O)n1ccnc1 (tested in a mixture with another compound) | – | > 100 | > 100 | – | > 100 µM | – | > 100 µM | > 100 µM | – | > 100 µM | – | – | > 100 µM | – | > 100 | – | > 100 | > 100 | – | – |
| CCN1C(=O)N(CC)C2C1NN=c1s/c(=C\c3ccc(C(F)(F)F)cc3)c(=O)n12 (configuration not stated) | 0.483 | > 34.6 | 16.3 | 0.252 | 0.635 µM | 0.577 | > 44.7 µM | 36.4 µM | 0.389 | 8.67 µM | 0.647 | 0.495 | 8.84 µM | 1.03 | > 41 | 0.338 | > 44.8 | > 40 | 0.417 | 0.328 |
| O=C(c1ccc2ccccc2c1)c1c(C(F)(F)F)n([O-])c2cc(C(F)(F)F)ccc2[n+]1=O | 1.63 | 3.22 | 3.9 | 1.48 | 2.97 µM | 1.55 | 3.06 µM | 1.45 µM | 1.25 | 3.37 µM | 1.88 | 1.7 | 3.25 µM | 1.56 | 3.05 | 1.63 | 3.43 | 3.49 | 1.49 | 0.621 |
| COc1cc(NS(C)(=O)=O)ccc1Cc1c2ccccc2nc2ccccc12 | 0.0793 | 1.48 | 0.0265 | 0.785 | 2.06 µM | 0.101 | 1.67 µM | 1.53 µM | 0.377 | 3.28 µM | 0.134 | 1.28 | 2.78 µM | 0.179 | 6.03 | 0.0517 | 3.35 | 5 | – | 0.139 |
| CC(C)=Cc1cccc2[nH]c(O)c(N=Nc3ccc(S(N)(=O)=O)cc3)c12 | 2.67 | > 25 | > 25 | 11.5 | > 25 µM | > 25 | > 25 µM | > 25 µM | 8.16 | > 25 µM | > 14.6 | 7.17 | > 25 µM | 12.4 | > 25 | 1.04 | > 25 | > 25 | 1.74 | 1.69 |
| CC1OC(CC(=O)O)Cc2c1c(O)c1c(O)cc(-c3cc(=O)c4c(=O)c5c(c(=O)c=4c3=O)CC(CC(=O)O)OC5C)c(O)c1c2O (configuration not stated) | – | 36.5 | 21.7 | 37 | > 58.6 µM | 48.9 | 17.7 µM | 87.5 µM and 52.7 µM | 20.9 | 81.6 µM and 68.7 µM | 66.6 | 29.4 | 64.9 µM | 47.8 | > 100 | 27.7 | > 100 | – | – | 23.6 |
| Cc1ccc(-c2nc(/C=N/Nc3cc(C)nc4ccc(Br)cc34)c(C)o2)cc1 | 1.88 | 3.57 | 5.13 | 1.88 | 3.36 µM | 1.73 | 3.36 µM | 3.12 µM | 2.05 | 4.71 µM | 1.86 | 1.98 | 3.77 µM | 2.09 | 4.22 | 1.92 | 3.48 | 3.99 | 2.32 | 1.73 |
| Cc1ccc2[nH]c(C(=O)NN3C(=O)C(C)SC34CCC(C)CC4)c(-c3ccccc3)c2c1 (configuration not stated) | 18 | 34.8 | 32.2 | 11.8 | 27.3 µM | 11.8 | 25.6 µM | 38 µM | 11.5 | 52.6 µM | 22.7 | 15.4 | 31.6 µM | 14.9 | 35.5 | 17.5 | 62.4 | > 100 | 7.86 | 15.6 |
| O=C(Nc1ccccc1Cl)c1ccc(NC2=C(Cl)C(=O)N(C3CCCCC3)C2=O)cc1 | 1.68 | 20.9 | 20.4 | 9.25 | 28.4 µM | 6.78 | 26.5 µM | 56.5 µM | 7.35 | 34.2 µM | 16.9 | 13.7 | 33.3 µM | 20.2 | 52.9 | 9.82 | 38.5 | 36 | 5.56 | 22.9 |
| COC(=O)C1=C(C(=O)ON)[C@@H]2C=C[C@@]1([C@@H](Cc1ccccc1)Nc1ccccc1)O2 | 1.5 | 2.88 | 7.71 | 1.57 | 3 µM | 6.37 | 19.3 µM | 2.96 µM | 2.13 | 5.32 µM | 16 | 1.79 | 3.78 µM | 14 | 28.5 | 2.34 | 29.5 | 8.12 | 2.86 | 1.61 |
| CCOC(=O)Nc1ccc2c(c1)C(=O)N(CC)c1ccccc1O2 | 0.198 | > 100 | > 100 | 0.0788 | 0.612 µM | 0.101 | > 100 µM | > 100 µM | 0.126 | > 100 µM | 0.268 | 0.4 | > 100 µM | 0.26 | > 100 | 0.139 | > 100 | > 100 | 0.125 | 0.179 |
